Data as given in PMC9981671, “rRNA methylation by Spb1 regulates the GTPase activity of Nog2 during 60S ribosomal subunit assembly” (Nature Communications, 2023).

Target: Nog2 (Saccharomyces cerevisiae, UniProt P53742)
Experiment: cryo-EM structure of native pre-60S particle, […] A
Format: binding
Conditions: Nog2pre from spb1 D52A strain (unmethylated G2922); GTPase site with Mg2+ and K+; pH 8.0; also Nog2post (7UUI) and Nog2pre from spb1 D52A/E769K strain (7V08)

Chain of Nog2 (P53742 whole entry): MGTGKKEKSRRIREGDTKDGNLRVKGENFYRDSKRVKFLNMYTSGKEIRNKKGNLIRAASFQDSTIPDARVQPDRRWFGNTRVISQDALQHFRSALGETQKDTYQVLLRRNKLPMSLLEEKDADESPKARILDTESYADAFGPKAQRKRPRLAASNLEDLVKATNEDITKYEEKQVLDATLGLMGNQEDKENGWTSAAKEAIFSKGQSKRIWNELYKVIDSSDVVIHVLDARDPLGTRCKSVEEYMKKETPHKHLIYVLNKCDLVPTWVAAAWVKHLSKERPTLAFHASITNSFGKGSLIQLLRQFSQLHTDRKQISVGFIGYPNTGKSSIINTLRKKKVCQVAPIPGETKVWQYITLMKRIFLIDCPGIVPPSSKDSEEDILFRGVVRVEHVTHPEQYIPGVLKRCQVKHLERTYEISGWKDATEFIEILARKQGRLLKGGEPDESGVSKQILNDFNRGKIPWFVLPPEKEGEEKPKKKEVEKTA

SMILES: Nc1nc2c(ncn2[C@@H]2O[C@H](COP(=O)(O)OP(=O)(O)O)[C@@H](O)[C@H]2O)c(=O)[nH]1 [GDP]
- cryo-EM structure of native pre-60S particle, 2.4 A: GTP hydrolysis has taken place and that GDP occupies the Nog2 active site
